Among the data in patent US12371428B2 (Exelixis, Inc., priority 2019, dated 2025) are IC50 values, retold here.

A word on the IC50: it is the concentration that inhibits the measured activity by half.

The target in experiment [1] is Human KDR (residues 790-1356) (Homo sapiens (Human), UniProt P35968). In words: Human KDR kinase assay, HTRF KinEase (Example B-2). The class given is biochemical. Conditions: protocol of Example B-2. The gist of the method:
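Ten compound concentrations (3% DMSO final) were pre-plated, then KDR (790-1356) with biotinylated peptide in Mg/Mn/DTT buffer was added; ATP at Km (4.0 μM) started a 40 min room-temperature reaction. Detection used Eu-TK antibody and SA-XL665 in EDTA buffer; activity normalized to DMSO and reference inhibitor, IC50 by logistic fit.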
(In general: Time-resolved FRET reads energy transfer from a long-lived donor to a nearby acceptor.)

Experiment [2] has as its target Human MER (residues 528-999) (Homo sapiens (Human), UniProt Q12866). In words: Human Mer kinase assay, HTRF KinEase (Example C-2). The class given is biochemical. The following applies: protocol of Example C-2. Put shortly:
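IC50 values from 10 concentrations via 4-parameter logistic fit of […], with DMSO as 100% and 1 μM reference compound as 0% activity. Reaction: MER kinase domain 528-999, 1 ng/well, 40 μM ATP (Km), biotin peptide, 5 mM MgCl2, 1 mM DTT, 3% DMSO, room temperature 60 min; HTRF streptavidin-XL665/Eu-antibody detection.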

In experiment [3] the target is Met (phospho-Met, HGF-stimulated PC-3 prostate cancer cells) (Homo sapiens (Human), UniProt P08581). In words: Met autophosphorylation ELISA in PC-3 cells (Example F). The format is cell-based. The following applies: cellular activity; Met autophosphorylation ELISA in PC-3 cells; read-out: c-Met IC50. Put shortly: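 Compounds were tested on HGF-stimulated PC-3 cells. After 24 h culture and 3 h serum starvation, cells got compound for 1 h and 100 ng/mL HGF for 10 min, and Met tyrosine phosphorylation was measured by ELISA.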
Sequence of Met (phospho-Met, HGF-stimulated PC-3 prostate cancer cells) (P08581 25-1390): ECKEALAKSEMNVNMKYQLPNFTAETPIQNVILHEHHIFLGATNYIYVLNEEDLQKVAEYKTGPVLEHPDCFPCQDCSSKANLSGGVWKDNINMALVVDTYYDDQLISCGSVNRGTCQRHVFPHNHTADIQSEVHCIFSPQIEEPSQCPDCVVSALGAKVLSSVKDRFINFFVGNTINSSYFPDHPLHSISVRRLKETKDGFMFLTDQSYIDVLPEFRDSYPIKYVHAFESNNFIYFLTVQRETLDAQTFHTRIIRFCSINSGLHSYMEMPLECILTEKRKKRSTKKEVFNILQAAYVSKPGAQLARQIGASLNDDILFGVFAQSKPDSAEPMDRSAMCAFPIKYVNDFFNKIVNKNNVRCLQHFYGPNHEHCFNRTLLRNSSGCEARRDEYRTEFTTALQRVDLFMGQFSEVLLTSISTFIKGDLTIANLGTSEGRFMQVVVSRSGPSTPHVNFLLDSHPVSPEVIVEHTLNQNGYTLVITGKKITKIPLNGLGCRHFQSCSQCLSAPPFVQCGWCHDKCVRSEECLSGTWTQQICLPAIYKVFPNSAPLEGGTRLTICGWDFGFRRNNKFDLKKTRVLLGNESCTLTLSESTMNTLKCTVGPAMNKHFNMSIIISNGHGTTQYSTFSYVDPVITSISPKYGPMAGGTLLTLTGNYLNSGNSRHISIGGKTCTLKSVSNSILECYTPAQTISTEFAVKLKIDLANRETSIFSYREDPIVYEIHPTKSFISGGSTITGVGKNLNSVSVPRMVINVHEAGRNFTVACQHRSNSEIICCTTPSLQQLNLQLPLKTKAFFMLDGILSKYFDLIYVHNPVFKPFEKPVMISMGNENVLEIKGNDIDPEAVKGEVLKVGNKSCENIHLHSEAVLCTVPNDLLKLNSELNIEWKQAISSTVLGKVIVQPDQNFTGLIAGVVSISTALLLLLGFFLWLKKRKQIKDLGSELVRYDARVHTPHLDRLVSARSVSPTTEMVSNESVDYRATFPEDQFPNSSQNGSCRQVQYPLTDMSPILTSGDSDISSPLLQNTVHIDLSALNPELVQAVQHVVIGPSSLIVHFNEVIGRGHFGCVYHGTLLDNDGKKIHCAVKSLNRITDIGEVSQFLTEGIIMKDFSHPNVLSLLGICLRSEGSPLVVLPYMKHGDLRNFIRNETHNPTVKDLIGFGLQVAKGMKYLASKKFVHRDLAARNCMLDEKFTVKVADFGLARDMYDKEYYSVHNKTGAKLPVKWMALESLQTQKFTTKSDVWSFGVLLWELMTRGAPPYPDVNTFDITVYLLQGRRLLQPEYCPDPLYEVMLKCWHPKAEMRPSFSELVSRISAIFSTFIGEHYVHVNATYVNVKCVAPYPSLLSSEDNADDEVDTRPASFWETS
(ELISA stands for enzyme-linked immunosorbent assay.)

Experiment [4] addresses Mer (phospho-Mer, MERTK-transfected 293A cells) (Homo sapiens (Human), UniProt Q12866). In words: Mer autophosphorylation ELISA in transient transfected 293A cells (Example H). The class given is cell-based. Conditions: cellular activity; Mer autophosphorylation ELISA in transient transfected 293A cells. Put shortly:
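IC50 from 4-parameter logistic fit of phospho-Mer levels, quantified by ELISA against a phospho-Mer standard in lysates of MERTK-transfected 293A cells. Cells exposed 1 h to 8-point serial dilutions, serum-free, 0.3% DMSO; controls: DMSO (100%) and reference inhibitor (0%).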

Sequence of Mer (phospho-Mer, MERTK-transfected 293A cells) (Q12866 21-999): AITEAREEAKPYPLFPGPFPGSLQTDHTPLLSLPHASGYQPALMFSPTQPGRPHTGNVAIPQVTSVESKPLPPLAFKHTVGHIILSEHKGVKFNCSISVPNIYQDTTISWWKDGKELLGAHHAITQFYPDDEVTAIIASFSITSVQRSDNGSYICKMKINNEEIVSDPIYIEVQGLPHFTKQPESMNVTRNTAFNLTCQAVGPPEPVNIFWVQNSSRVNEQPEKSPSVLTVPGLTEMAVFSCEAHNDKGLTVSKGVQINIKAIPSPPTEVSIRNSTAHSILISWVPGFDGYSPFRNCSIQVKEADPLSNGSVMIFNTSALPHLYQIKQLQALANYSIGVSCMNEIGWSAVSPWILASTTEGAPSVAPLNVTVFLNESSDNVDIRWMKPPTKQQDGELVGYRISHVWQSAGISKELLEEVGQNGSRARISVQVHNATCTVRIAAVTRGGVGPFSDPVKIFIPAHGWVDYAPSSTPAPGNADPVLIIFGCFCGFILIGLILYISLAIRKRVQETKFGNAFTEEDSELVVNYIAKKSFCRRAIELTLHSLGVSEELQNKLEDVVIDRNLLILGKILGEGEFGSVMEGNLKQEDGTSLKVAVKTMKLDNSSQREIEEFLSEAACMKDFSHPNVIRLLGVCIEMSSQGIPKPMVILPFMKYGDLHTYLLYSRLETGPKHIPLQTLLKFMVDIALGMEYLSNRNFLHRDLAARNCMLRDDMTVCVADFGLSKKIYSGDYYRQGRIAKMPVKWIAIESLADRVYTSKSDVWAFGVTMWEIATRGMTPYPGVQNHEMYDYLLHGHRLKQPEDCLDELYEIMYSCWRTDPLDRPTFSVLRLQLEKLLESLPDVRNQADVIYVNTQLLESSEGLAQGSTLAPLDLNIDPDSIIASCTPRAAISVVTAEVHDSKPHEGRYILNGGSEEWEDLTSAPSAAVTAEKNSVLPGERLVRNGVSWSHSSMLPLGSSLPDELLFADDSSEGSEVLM
Sequence of Human MER (residues 528-999) (Q12866 528-999): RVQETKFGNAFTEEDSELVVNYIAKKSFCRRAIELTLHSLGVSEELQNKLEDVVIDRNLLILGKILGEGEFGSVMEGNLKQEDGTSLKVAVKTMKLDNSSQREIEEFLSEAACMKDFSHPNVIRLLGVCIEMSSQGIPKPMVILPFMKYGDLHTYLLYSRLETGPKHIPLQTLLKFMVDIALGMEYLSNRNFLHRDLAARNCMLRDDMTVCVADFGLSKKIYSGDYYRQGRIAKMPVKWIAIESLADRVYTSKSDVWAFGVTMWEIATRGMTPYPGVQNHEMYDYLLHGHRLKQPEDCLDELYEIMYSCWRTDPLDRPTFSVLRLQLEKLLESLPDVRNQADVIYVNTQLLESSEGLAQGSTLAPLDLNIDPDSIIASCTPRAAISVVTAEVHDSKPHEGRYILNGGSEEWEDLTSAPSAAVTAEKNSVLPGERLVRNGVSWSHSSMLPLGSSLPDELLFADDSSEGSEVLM
Sequence of Human KDR (residues 790-1356) (P35968 790-1356): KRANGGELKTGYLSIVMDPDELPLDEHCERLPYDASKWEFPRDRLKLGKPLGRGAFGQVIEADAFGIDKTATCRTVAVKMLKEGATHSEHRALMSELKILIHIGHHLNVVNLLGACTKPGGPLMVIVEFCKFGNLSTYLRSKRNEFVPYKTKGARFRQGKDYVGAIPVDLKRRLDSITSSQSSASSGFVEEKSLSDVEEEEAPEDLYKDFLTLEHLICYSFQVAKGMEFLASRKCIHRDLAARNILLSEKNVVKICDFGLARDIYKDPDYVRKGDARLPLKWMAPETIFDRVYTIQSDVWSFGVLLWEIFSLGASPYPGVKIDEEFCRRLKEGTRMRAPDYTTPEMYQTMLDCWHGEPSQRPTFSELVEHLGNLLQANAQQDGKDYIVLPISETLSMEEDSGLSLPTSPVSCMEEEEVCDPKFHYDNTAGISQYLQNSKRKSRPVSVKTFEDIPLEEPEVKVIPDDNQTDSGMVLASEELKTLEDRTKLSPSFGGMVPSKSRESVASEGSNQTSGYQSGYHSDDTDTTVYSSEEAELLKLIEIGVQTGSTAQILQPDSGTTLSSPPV

With `COc1cnc2c(Oc3ccc(NC(=O)c4cc(C)nn(-c5ccc(F)cc5)c4=O)cc3)ccnc2c1` [Compound 522, 2-(4-fluorophenyl)-N-[4-[(7-methoxy-1,5-naphthyridin-4-yl)oxy]phenyl]-6-methyl-3-oxopyridazine-4-carboxamide], the IC50 in experiment [1] is more than 300 nM; in experiment [2], 100 to 300 nM; in experiment [3], less than 100 nM; in experiment [4], more than 300 nM.

Take `COc1cc2nccc(Oc3ccc(NC(=O)c4c(C)n(C)c(C)c(-c5ccc(F)cc5)c4=O)cc3)c2nc1OC` [Compound 523, N-[4-[(6,7-dimethoxy-1,5-naphthyridin-4-yl)oxy]phenyl]-5-(4-fluorophenyl)-1,2,6-trimethyl-4-oxopyridine-3-carboxamide]: the IC50 was more than 300 nM in experiment [1], less than 100 nM in experiment [2], less than 100 nM in experiment [3] and less than 100 nM in experiment [4].

For the compound `COc1cc2nccc(Oc3ccc(NC(=O)c4c(C)c(C)nn(-c5ccc(F)cc5)c4=O)cc3F)c2nc1OC` [Compound 524, N-[4-[(6,7-dimethoxy-1,5-naphthyridin-4-yl)oxy]-3-fluorophenyl]-2-(4-fluorophenyl)-5,6-dimethyl-3-oxopyridazine-4-carboxamide], the IC50 in experiment [1] was 100 to 300 nM; in experiment [2], less than 100 nM; in experiment [3], less than 100 nM; in experiment [4], less than 100 nM.

Take `COCc1nc(C)c(-c2ccc(F)cc2)c(O)c1C(=O)Nc1ccc(Oc2ccnc3ccc(OC)cc23)c(F)c1` [Compound 525, N-[3-fluoro-4-(6-methoxyquinolin-4-yl)oxyphenyl]-5-(4-fluorophenyl)-4-hydroxy-2-(methoxymethyl)-6-methylpyridine-3-carboxamide]: the IC50 is more than 300 nM in experiment [1], less than 100 nM in experiment [2], less than 100 nM in experiment [3] and less than 100 nM in experiment [4].

Turning to `CCc1nc(C)c(-c2ccc(F)cc2C)c(O)c1C(=O)Nc1ccc(Oc2ccnc3ccc(OC)nc23)cc1` [Compound 526, 2-ethyl-5-(4-fluoro-2-methylphenyl)-4-hydroxy-N-[4-[(6-methoxy-1,5-naphthyridin-4-yl)oxy]phenyl]-6-methylpyridine-3-carboxamide], the half-maximal inhibitory concentration (IC50) in experiment [1] was more than 300 nM; in experiment [2] it was less than 100 nM; in experiment [3] it was less than 100 nM; in experiment [4], less than 100 nM.

Turning to `COc1cnc2c(Oc3ccc(NC(=O)c4ccnn(-c5ccc(F)cc5C)c4=O)cc3)ccnc2c1` [Compound 530, 2-(4-fluoro-2-methylphenyl)-N-[4-[(7-methoxy-1,5-naphthyridin-4-yl)oxy]phenyl]-3-oxopyridazine-4-carboxamide], the IC50 in experiment [1] was more than 300 nM; in experiment [2], 100 to 300 nM; in experiment [3], less than 100 nM; in experiment [4], less than 100 nM.

On to `COc1cc2nccc(Oc3ccc(NC(=O)c4cnc(SC(C)C)n(-c5ccc(F)cc5)c4=O)cc3)c2cc1OC` [Compound 539, N-[4-(6,7-dimethoxyquinolin-4-yl)oxyphenyl]-1-(4-fluorophenyl)-6-oxo-2-propan-2-ylsulfanylpyrimidine-5-carboxamide], for which the IC50 in experiment [1] is 100 to 300 nM; in experiment [2] it was less than 100 nM; in experiment [3] it was less than 100 nM; in experiment [4] it was less than 100 nM.

On to `COc1cc2nccc(Oc3ccc(NC(=O)c4cnc(C)c(-c5ccc(F)cc5)c4O)cc3F)c2nc1C` [Compound 541, N-[3-fluoro-4-[(7-methoxy-6-methyl-1,5-naphthyridin-4-yl)oxy]phenyl]-5-(4-fluorophenyl)-4-hydroxy-6-methylpyridine-3-carboxamide], for which the IC50 in experiment [1], in experiment [2], in experiment [3] and in experiment [4] was less than 100 nM throughout.

Turning to `COc1cc2nccc(Oc3cc(F)c(NC(=O)c4cnc(C)c(-c5ccc(F)cc5)c4O)cc3F)c2nc1C` [Compound 542, N-[2,5-difluoro-4-[(7-methoxy-6-methyl-1,5-naphthyridin-4-yl)oxy]phenyl]-5-(4-fluorophenyl)-4-hydroxy-6-methylpyridine-3-carboxamide], the IC50 was 100 to 300 nM in experiment [1], less than 100 nM in experiment [2], less than 100 nM in experiment [3] and less than 100 nM in experiment [4].

In the case of `CNc1nccc2c(Oc3ccc(NC(=O)c4cnc(C)n(-c5ccc(F)cc5)c4=O)cc3)ccnc12` [Compound 543, 1-(4-fluorophenyl)-2-methyl-N-[4-[[8-(methylamino)-1,7-naphthyridin-4-yl)oxy]phenyl]-6-oxopyrimidine-5-carboxamide], the IC50 in experiment [1] is more than 300 nM; in experiment [2], less than 100 nM; in experiment [3], less than 100 nM; in experiment [4] it was less than 100 nM.

As for `COc1cc2nccc(Oc3ccc(NC(=O)c4cnc(COC(C)=O)c(-c5ccc(F)cc5)c4O)cc3F)c2nc1OC` [Compound 544, [5-[[4-[(6,7-dimethoxy-1,5-naphthyridin-4-yl)oxy]-3-fluorophenyl]carbamoyl]-3-(4-fluorophenyl)-4-hydroxypyridin-2-yl]methyl acetate], the half-maximal inhibitory concentration (IC50) in experiment [1], in experiment [2], in experiment [3] and in experiment [4] was less than 100 nM throughout.

Turning to `Cc1ccc(C(=O)Nc2ccc(Oc3ccnc4cc(O)cnc34)c(F)c2)c(=O)n1-c1ccc(F)cc1` [Compound 551, N-[3-Fluoro-4-[(7-hydroxy-1,5-naphthyridin-4-yl)oxy]phenyl]-1-(4-fluorophenyl)-6-methyl-2-oxopyridine-3-carboxamide], the IC50 in experiment [1] is 100 to 300 nM; in experiment [2], less than 100 nM; in experiment [3], less than 100 nM; in experiment [4], less than 100 nM.

Regarding `COCCOc1cnc2c(Oc3ccc(NC(=O)c4ccc(C)n(-c5ccc(F)cc5)c4=O)cc3F)ccnc2c1` [Compound 552, N-[3-Fluoro-4-[[7-(2-methoxyethoxy)-1,5-naphthyridin-4-yl]oxy]phenyl]-1-(4-fluorophenyl)-6-methyl-2-oxopyridine-3-carboxamide], the IC50 in experiment [1], in experiment [2], in experiment [3] and in experiment [4] was less than 100 nM throughout.

As for `COc1cc2nccc(Oc3ccc(NC(=O)c4cn(C)c(C(=O)O)c(-c5ccc(F)cc5)c4=O)cc3F)c2nc1OC` [Compound 553, 5-[[4-[(6,7-Dimethoxy-1,5-naphthyridin-4-yl)oxy]-3-fluorophenyl]carbamoyl]-3-(4-fluorophenyl)-1-methyl-4-oxopyridine-2-carboxylic acid], the 50% inhibitory concentration (IC50) was more than 300 nM in experiment [1], less than 100 nM in experiment [2], less than 100 nM in experiment [3] and 100 to 300 nM in experiment [4].

`Cc1nc(C)c(-c2ccc(F)cc2)c(O)c1C(=O)Nc1ccc(Oc2ccnc3cc(O)cnc23)c(F)c1` [Compound 554, N-[3-Fluoro-4-[(7-hydroxy-1,5-naphthyridin-4-yl)oxy]phenyl]-5-(4-fluorophenyl)-4-hydroxy-2,6-dimethylpyridine-3-carboxamide]: the IC50 in experiment [1], in experiment [2], in experiment [3] and in experiment [4] was less than 100 nM each time.

Regarding `COCCOc1cnc2c(Oc3ccc(NC(=O)c4c(C)nc(C)c(-c5ccc(F)cc5)c4O)cc3F)ccnc2c1` [Compound 555, N-[3-Fluoro-4-[[7-(2-methoxyethoxy)-1,5-naphthyridin-4-yl]oxy]phenyl]-5-(4-fluorophenyl)-4-hydroxy-2,6-dimethylpyridine-3-carboxamide], the IC50 in experiment [1], in experiment [2], in experiment [3] and in experiment [4] was less than 100 nM throughout.
